# Source: patent US20260248922A1, “TREATMENT OF SIGNS, SYMPTOMS AND/OR COMPLICATIONS OF VIRAL, BACTERIAL, PROTOZOAL, AND/OR FUNGAL INFECTIONS BY HIGH PENETRATION PRODRUGS” (priority 2022, published 2026)
# Tested on: COVID-19
# Experiment: Phase 2 placebo-controlled study in COVID-19 infection in hospitalized adults (Example 81)
# Format: in vivo, human
# Details: hospitalized COVID-19 patients, 7% solution in 15% ethanol sprayed on skin BID for 28 days
# Description: Patients cannot be enrolled or randomized before all eligibility criteria (including test results) are confirmed.
# Inclusion criteria: • 1. Admitted to a hospital with pulmonary symptoms of active COVID-19. • 2. Patient (or legally authorized representative) provides informed consent prior to initiation of any study procedures. • 3. Patient (or legally authorized representative) understands and agrees to comply with planned study procedures. • 4. Male or nonpregnant female adult ≥18 years of age at time of enrollment. • 5. Has laboratory confirmed severe acute respiratory syndrome coronavirus 2 (COVID-19) infection as determined by polymerase chain reaction (PCR) or other commercial or public health assay (serology is not acceptable) in any specimen, as documented by either of the following: • a. Laboratory confirmed COVID-19 infection by method as defined above, in sample collected <72 hours prior to randomization; OR • b. […] Has a room-air SpO2<93% and a score of 4 (hospitalized, oxygen by mask or nasal prongs), or room-air SpO2<93% and a score of 5 (hospitalized, noninvasive ventilation or high-flow oxygen), or a score 6 (hospitalized, intubation and mechanical ventilation) in the ordinal scale, which specifically is as follows: • 0) Uninfected, no clinical or virological evidence of infection • 1) Ambulatory (not diagnosed), no limitations of activities. • 2) Ambulatory (not diagnosed), limitation on activities and/or requiring home oxygen • 3) Diagnosed (mild disease), no requiring supplemental oxygen; • 4) Diagnosed (moderate disease), requiring supplemental oxygen (by mask or nasal prongs)—requiring ongoing medical care (COVID-19 related or otherwise); • 5) Diagnosed (severe disease), non-invasive ventilation or high-flow oxygen; • 6) Diagnosed (severe disease), intubation and mechanical ventilation; • 7) Diagnosed (severe disease), ventilation+additional organ support-pressors, RRT, or extracorporeal membrane oxygenation (ECMO); • 8) Death. • 7. […]
structure (smiles),measurement,value
CCN(CC)CCOC(=O)c1ccccc1OC(C)=O.Cl [Example 4],"hospital stay time, average",about 4 days
same,"time to an improvement of 2 categories using 9-point ordinal scale, average",about 3 days
same,"time to maintain peripheral capillary oxygen saturation (SpO2) of >93% without oxygen support, average",about 3 days
